PubChem BioAssay AID256 (DTP/NCI, 2004)
Toxic doses and inconclusive results are not listed. Non-standard residues stand in square brackets, D forms with d. Residues, ends and D or L forms follow the SMILES beside them. ξ: configuration not given here. *: point of attachment. ξF = NC(Cc1ccccc1)C(=O)O; Cbz = O=C(OCc1ccccc1)*; OBn = c1ccc(CO*)cc1

System: CD2F1 mice, L1210 leukemia ip, survival T/C
Test: NCI In Vivo Anticancer Drug Screen. Data for tumor model L1210 Leukemia (intraperitoneal) in CD2F1 (CDF1) mice
Conditions: higher = longer survival
Procedure, shortened: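 Mice carrying a transplanted tumor received test compound or vehicle alone. The value is the measurement in the treated group divided by that in the vehicle-treated control group.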

[1] = endpoint: mean survival time, dose: 100.0 mg/kg/injection, schedule: Q01DX009 (ip), vehicle: saline with Tween-80
[2] = endpoint: mean survival time, dose: 100.0 mg/kg/injection, schedule: Q04DX002 (ip), vehicle: saline with Tween-80
[3] = endpoint: mean survival time, dose: 200.0 mg/kg/injection, schedule: Q04DX002 (ip), vehicle: saline with Tween-80
[4] = endpoint: mean survival time, dose: 100.0 mg/kg/injection, schedule: Q04DX003 (ip), vehicle: saline with Tween-80
[5] = endpoint: mean survival time, dose: 200.0 mg/kg/injection, schedule: Q04DX003 (ip), vehicle: saline with Tween-80
[6] = endpoint: mean survival time, dose: 50.0 mg/kg/injection, schedule: Q04DX003 (ip), vehicle: saline with Tween-80
[7] = endpoint: mean survival time, dose: 25.0 mg/kg/injection, schedule: Q04DX003 (ip), vehicle: saline with Tween-80

`Cc1cc2ncn(C(=O)Nc3ccccc3)c2cc1C` was tested, and the T/C [1] was 105 % of control, the T/C (endpoint: mean survival time, dose: 200.0 mg/kg/injection, schedule: Q01DX009 (ip), vehicle: saline with Tween-80) was 94 % of control and the T/C (endpoint: mean survival time, dose: 400.0 mg/kg/injection, schedule: Q01DX009 (ip), vehicle: saline with Tween-80) was 96 % of control.

`CSc1nc(NC2OCC(O)C(O)C2O)c(I)c(=O)[nH]1` (stereo unspecified) was tested, and the T/C (endpoint: median survival time, dose: 12.5 mg/kg/injection, schedule: Q01DX005 (ip), vehicle: saline with Tween-80) was 100 % of control, the T/C (endpoint: median survival time, dose: 25.0 mg/kg/injection, schedule: Q01DX005 (ip), vehicle: saline with Tween-80) was 100 % of control and the T/C (endpoint: median survival time, dose: 50.0 mg/kg/injection, schedule: Q01DX005 (ip), vehicle: saline with Tween-80) was 103 % of control. The T/C (endpoint: median survival time, dose: 100.0 mg/kg/injection, schedule: Q01DX005 (ip), vehicle: saline with Tween-80) was 107 % of control and the T/C (endpoint: median survival time, dose: 200.0 mg/kg/injection, schedule: Q01DX005 (ip), vehicle: saline with Tween-80) was 107 % of control.

In the case of `Cc1cc(Cl)ccc1NC(=O)N1CCCC(C)C1` (stereo unspecified), the T/C (endpoint: mean survival time, dose: 12.5 mg/kg/injection, schedule: Q01DX009 (ip), vehicle: saline with Tween-80) is reported as 95 % of control, the T/C (endpoint: mean survival time, dose: 25.0 mg/kg/injection, schedule: Q01DX009 (ip), vehicle: saline with Tween-80) is reported as 102 % of control and the T/C (endpoint: mean survival time, dose: 50.0 mg/kg/injection, schedule: Q01DX009 (ip), vehicle: saline with Tween-80) is reported as 91 % of control.

With `C1OC1CO[C@@H]1CO[C@H]2[C@@H]1OC[C@H]2OCC1CO1` (stereo partly specified) the T/C (endpoint: mean survival time, dose: 12.5 mg/kg/injection, schedule: Q01DX009 (ip), vehicle: suspension in saline) was 100 % of control.

In the case of `CCCCCCCCCC(=O)N1CC[N+](C)(C)CC1`, the T/C (endpoint: mean survival time, dose: 5.0 mg/kg/injection, schedule: Q01DX001 (ip), vehicle: saline) is reported as 102 % of control, the T/C (endpoint: mean survival time, dose: 10.0 mg/kg/injection, schedule: Q01DX001 (ip), vehicle: saline) is reported as 105 % of control and the T/C (endpoint: mean survival time, dose: 20.0 mg/kg/injection, schedule: Q01DX001 (ip), vehicle: saline) is reported as 104 % of control.

`CC([NH-])C[NH-].O=C(O)C(O)C(O)C(O)C(O)CO.O=C(O)C(O)C(O)C(O)C(O)CO.[Pt+2]` (stereo unspecified) was tested, and the T/C (endpoint: mean survival time, dose: 25.0 mg/kg/injection, schedule: Q04DX003 (ip), vehicle: saline) was 113 % of control, the T/C (endpoint: mean survival time, dose: 50.0 mg/kg/injection, schedule: Q04DX003 (ip), vehicle: saline) was 120 % of control and the T/C (endpoint: mean survival time, dose: 100.0 mg/kg/injection, schedule: Q04DX003 (ip), vehicle: saline) was 123 % of control.

For `CCN=Cc1ccccc1O.CCN=Cc1ccccc1O.[Pd]`, the T/C (endpoint: mean survival time, dose: 100.0 mg/kg/injection, schedule: Q01DX001 (ip), vehicle: saline with Tween-80) was 106 % of control, the T/C (endpoint: mean survival time, dose: 200.0 mg/kg/injection, schedule: Q01DX001 (ip), vehicle: saline with Tween-80) was 95 % of control and the T/C (endpoint: mean survival time, dose: 400.0 mg/kg/injection, schedule: Q01DX001 (ip), vehicle: saline with Tween-80) was 95 % of control.

With `COC(=O)C1C(C(C)=O)C2C(=O)C3C(C(=O)OC)C(C(=O)OC)C3C(=O)C12` (stereo unspecified) the T/C (endpoint: mean survival time, dose: 25.0 mg/kg/injection, schedule: Q04DX002 (ip), vehicle: saline with Tween-80) was 93 % of control, the T/C (endpoint: mean survival time, dose: 50.0 mg/kg/injection, schedule: Q04DX002 (ip), vehicle: saline with Tween-80) was 96 % of control and the T/C [2] was 100 % of control. For the same molecule, the T/C [3] was 96 % of control.

With `CCOC(=O)c1c(C)[nH]oc1=O` the T/C [1] was 96 % of control.

`O=C(CNC(=O)OCc1ccccc1)NCC(=O)NC(Cc1ccccc1)C(=O)OCc1ccccc1` (stereo not drawn) (Cbz-Gly-Gly-[ξF]-OBn) was tested, and the T/C [4] was 97 % of control, the T/C [5] was 103 % of control and the T/C (endpoint: mean survival time, dose: 400.0 mg/kg/injection, schedule: Q04DX003 (ip), vehicle: saline with Tween-80) was 99 % of control.

For `O=C1CSC(c2ccccc2)N1` (stereo unspecified), the T/C [6] was 102 % of control, the T/C [4] was 100 % of control and the T/C [5] was 100 % of control.

With `O=[N+]([O-])c1ccc(N/N=C/C(Br)(Br)Br)c([N+](=O)[O-])c1` the T/C [7] was 102 % of control and the T/C [6] was 100 % of control.

`Cc1cc2c(cc1C)N(C(=O)CN1CCCCC1)CC(=O)N2` was tested, and the T/C (endpoint: mean survival time, dose: 75.0 mg/kg/injection, schedule: Q04DX003 (ip), vehicle: saline) was 94 % of control and the T/C (endpoint: mean survival time, dose: 150.0 mg/kg/injection, schedule: Q04DX003 (ip), vehicle: saline) was 89 % of control.

`CCNCc1ccc(OC)cc1` was tested, and the T/C [7] was 106 % of control, the T/C [6] was 104 % of control and the T/C [4] was 93 % of control.

In the case of `O=C(O)C1(C(=O)O)CCCCC1.[NH2-].[NH2-].[Pt+2]`, the T/C (endpoint: mean survival time, dose: 12.5 mg/kg/injection, schedule: Q04DX003 (ip), vehicle: suspension in saline) is reported as 108 % of control, the T/C (endpoint: mean survival time, dose: 25.0 mg/kg/injection, schedule: Q04DX003 (ip), vehicle: suspension in saline) is reported as 122 % of control and the T/C (endpoint: mean survival time, dose: 80.0 mg/kg/injection, schedule: Q04DX003 (ip), vehicle: saline) is reported as 182 % of control. For the same molecule, the T/C (endpoint: mean survival time, dose: 100.0 mg/kg/injection, schedule: Q04DX003 (ip), vehicle: suspension in saline) was 112 % of control.

For `COCNC(=S)N/N=C/c1ccc(O)cn1`, the T/C [2] was 95 % of control, the T/C [3] was 98 % of control and the T/C (endpoint: mean survival time, dose: 400.0 mg/kg/injection, schedule: Q04DX002 (ip), vehicle: saline with Tween-80) was 102 % of control.
